For one test, the target named is FGFR4 (h) (Homo sapiens, UniProt P22455). Description: FGFR4 (enzymatic assay), TR-FRET. The test is classed as biochemical. The note with it: FGFR 4 pIC50, enzymatic assay. (In general: TR-FRET usually uses a lanthanide donor and a delayed reading to cut background.)
In a further test the target is FGFR2 (h) (Homo sapiens, UniProt P21802). The test can be described thus: FGFR2 (enzymatic assay), TR-FRET. The test is classed as biochemical. The note with it: enzymatic assay; read-out: FGFR 2 pIC50 (converted). Summed up: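 At low ATP (0.4 μM), enzyme activity of human FGFR2 (150 ng/ml) toward biotinylated Flt3 substrate (500 nM) was followed with test compound present. Reactions ran in 50 mM HEPES pH 7.5, 6 mM MnCl2, 1 mM DTT, 0.1 mM Na3VO4, 0.01% Triton-X-100, 1% DMSO.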
Chain of FGFR2 (h) (P21802 22-821): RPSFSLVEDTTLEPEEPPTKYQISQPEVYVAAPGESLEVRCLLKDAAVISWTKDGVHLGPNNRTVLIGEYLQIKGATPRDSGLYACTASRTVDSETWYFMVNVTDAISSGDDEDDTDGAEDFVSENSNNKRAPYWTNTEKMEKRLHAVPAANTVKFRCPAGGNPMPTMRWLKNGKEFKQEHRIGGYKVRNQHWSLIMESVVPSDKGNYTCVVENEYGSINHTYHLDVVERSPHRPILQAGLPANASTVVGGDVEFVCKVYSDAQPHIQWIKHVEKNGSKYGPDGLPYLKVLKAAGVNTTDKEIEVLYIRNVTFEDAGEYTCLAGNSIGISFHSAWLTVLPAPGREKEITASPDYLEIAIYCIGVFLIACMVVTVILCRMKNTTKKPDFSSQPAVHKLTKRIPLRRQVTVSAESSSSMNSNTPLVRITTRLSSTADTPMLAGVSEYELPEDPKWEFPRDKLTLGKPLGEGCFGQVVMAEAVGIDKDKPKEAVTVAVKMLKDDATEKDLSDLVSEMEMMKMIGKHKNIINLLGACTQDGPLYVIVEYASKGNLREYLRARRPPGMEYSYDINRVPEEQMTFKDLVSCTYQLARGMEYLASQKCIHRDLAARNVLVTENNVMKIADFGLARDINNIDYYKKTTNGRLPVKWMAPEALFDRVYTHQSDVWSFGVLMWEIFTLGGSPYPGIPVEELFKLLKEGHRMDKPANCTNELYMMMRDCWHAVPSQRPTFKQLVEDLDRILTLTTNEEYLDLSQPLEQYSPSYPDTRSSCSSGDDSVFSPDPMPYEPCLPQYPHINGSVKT

Test [1] concerns the target T1, Ba/F3-FGFR3-transfected cells (Homo sapiens, UniProt P22607).
T1 construct: BAF3-FGFR3 (MIN IL3) pIC50; other: minus IL3
The test can be described thus: Ba/F3-FGFR3 (minus IL3) cellular proliferation assay, Alamar Blue. The test is classed as cell-based. The method, boiled down:
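Ba/F3 cells transfected with FGFR3 were seeded at 20000 cells/well in phenol red-free RPMI-1640 with 10% FBS over compound in DMSO and kept 24 hours at 37° C, 5% CO2. Alamar Blue (resazurin) was then added for 4 hours and fluorescence read at ex 540/em 590 nm. The counterscreen repeated this with 10 ng/ml murine IL3.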
In general terms: Resazurin is reduced to fluorescent resorufin, in cell work by metabolically active cells.

Test [2] deals with T2, Ba/F3-FGFR1-transfected cells (Homo sapiens, UniProt P11362).
T2 construct: BAF3-FGFR1 (MIN IL3) pIC50; other: minus IL3
T2 sequence (P11362 whole entry, change not shown): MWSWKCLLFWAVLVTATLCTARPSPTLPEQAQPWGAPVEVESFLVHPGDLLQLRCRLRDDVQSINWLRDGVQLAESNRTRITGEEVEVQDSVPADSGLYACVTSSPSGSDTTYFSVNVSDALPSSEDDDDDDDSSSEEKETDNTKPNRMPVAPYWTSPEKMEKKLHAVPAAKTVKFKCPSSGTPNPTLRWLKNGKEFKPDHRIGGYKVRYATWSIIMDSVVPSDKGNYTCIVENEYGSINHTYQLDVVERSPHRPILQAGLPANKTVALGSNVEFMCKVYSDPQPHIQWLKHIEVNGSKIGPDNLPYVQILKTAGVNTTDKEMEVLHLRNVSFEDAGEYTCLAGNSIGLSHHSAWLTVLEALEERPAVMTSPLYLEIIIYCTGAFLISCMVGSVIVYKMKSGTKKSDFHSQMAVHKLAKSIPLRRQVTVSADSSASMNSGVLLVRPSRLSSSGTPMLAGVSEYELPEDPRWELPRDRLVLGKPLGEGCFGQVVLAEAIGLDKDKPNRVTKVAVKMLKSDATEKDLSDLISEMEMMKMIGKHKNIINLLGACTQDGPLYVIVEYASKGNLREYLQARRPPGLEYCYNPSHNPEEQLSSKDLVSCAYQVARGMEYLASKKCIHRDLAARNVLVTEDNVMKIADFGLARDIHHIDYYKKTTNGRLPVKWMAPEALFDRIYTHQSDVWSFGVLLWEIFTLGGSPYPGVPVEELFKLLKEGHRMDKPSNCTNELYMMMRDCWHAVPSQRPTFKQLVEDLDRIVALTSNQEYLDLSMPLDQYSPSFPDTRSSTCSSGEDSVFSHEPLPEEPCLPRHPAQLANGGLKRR
Description: Ba/F3-FGFR1 (minus IL3) cellular proliferation assay, Alamar Blue. The test is classed as cell-based. The method, boiled down: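 Ba/F3 cells transfected with FGFR1 (20000 cells/well) were plated onto compound in phenol red-free RPMI-1640 with 10% FBS, 2 mM L-glutamine and gentamycin, then kept 24 h at 37 °C, 5% CO2. Alamar Blue (resazurin) was added for 4 h and fluorescence read at ex 540/em 590 nm.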

For a further test, the target named is KDR (h) (Homo sapiens, UniProt P35968). Description: KDR (VEGFR2) (enzymatic assay), TR-FRET. The test is classed as biochemical. The note with it: read-out: VEGFR 2 (KDR) pIC50 (converted). Summed up: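 Phosphorylation of biotinylated Flt3 peptide (500 nM) by 150 ng/ml enzyme was measured at 3 μM ATP in Mn2+-containing HEPES buffer, pH 7.5, over 120 min at room temperature. Detection used Eu-anti-P-Tyr and SA-XL-665 TR-FRET.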
Chain of KDR (h) (P35968 20-1356): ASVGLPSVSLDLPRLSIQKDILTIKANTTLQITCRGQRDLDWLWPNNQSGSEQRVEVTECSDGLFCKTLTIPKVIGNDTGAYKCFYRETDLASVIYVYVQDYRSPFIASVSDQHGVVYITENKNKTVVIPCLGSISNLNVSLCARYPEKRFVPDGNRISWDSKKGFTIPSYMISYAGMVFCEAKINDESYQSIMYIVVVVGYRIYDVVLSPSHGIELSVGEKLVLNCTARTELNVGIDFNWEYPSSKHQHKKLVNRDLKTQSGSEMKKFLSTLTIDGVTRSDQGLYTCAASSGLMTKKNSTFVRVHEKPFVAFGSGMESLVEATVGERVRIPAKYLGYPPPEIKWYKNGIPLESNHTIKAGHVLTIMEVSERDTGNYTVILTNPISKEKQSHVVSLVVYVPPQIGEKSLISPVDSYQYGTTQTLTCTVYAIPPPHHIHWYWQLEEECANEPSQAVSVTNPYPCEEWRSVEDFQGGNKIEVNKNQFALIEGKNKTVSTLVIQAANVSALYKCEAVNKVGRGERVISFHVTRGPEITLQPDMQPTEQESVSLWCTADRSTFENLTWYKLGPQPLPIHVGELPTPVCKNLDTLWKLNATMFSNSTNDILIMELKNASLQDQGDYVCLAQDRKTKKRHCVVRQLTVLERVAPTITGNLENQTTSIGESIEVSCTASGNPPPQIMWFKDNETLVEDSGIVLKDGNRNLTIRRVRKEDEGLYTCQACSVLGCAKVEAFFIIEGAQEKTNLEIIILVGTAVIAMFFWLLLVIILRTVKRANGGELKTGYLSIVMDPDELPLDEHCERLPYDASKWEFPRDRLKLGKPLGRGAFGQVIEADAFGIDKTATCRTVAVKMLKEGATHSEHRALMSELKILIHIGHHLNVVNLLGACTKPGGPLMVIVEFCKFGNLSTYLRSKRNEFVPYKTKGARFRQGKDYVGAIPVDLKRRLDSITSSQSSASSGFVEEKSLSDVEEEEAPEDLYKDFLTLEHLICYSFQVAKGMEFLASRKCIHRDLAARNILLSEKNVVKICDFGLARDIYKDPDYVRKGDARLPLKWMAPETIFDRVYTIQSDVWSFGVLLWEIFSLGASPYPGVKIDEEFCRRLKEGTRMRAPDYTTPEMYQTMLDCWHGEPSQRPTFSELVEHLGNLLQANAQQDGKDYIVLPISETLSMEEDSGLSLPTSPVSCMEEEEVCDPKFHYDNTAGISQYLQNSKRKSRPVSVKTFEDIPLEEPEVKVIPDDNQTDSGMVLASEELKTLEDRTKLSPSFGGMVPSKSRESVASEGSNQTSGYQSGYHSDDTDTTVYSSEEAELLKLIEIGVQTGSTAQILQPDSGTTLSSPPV

A further test addresses FGFR3 (h) (Homo sapiens, UniProt P22607). The test can be described thus: FGFR3 (enzymatic assay), TR-FRET. The test is classed as biochemical. As to conditions: read-out: FGFR 3 pIC50 (converted). An excerpt:
Time-Resolved Fluorescence Resonance Energy Transfer (TR-FRET) signal (ex340 nm.

For test [3], the system named is Ba/F3-KDR-transfected cells. The test can be described thus: Ba/F3-KDR (plus IL3) cellular proliferation assay, counterscreen with 10 ng/ml murine IL3. The test is classed as cell-based. As to conditions: plus IL3 (10 ng/ml murine IL3, counterscreen); read-out: BAF3-KDR (PLUS IL3) pIC50 (converted). The method, boiled down: (§1)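 Compound in DMSO was dispensed first, then transfected cells in serum-containing RPMI-1640 were added. After a 24 h incubation, viability was gauged by resazurin reduction over 4 h, measured as fluorescence.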
A general note: The purpose of a counterscreen is to sort out artefacts and off-target activity.

The target of test [4] is T3, Ba/F3-KDR-transfected cells (Homo sapiens, UniProt P35968).
T3 construct: BAF3-KDR (MIN IL3) pIC50; other: minus IL3
Description: Ba/F3-KDR (minus IL3) cellular proliferation assay, Alamar Blue. The test is classed as cell-based. Summed up:
as §1

Test [5] relates to Ba/F3-FGFR1-transfected cells. The test can be described thus: Ba/F3-FGFR1 (plus IL3) cellular proliferation assay, counterscreen with 10 ng/ml murine IL3. The test is classed as cell-based. As to conditions: plus IL3 (10 ng/ml murine IL3, counterscreen); read-out: BAF3-FGFR1 (PLUS IL3) pIC50 (converted). Summed up:
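Proliferation read-out: resazurin-based Alamar Blue fluorescence (540/590 nm) after 4 h, following 24 h compound treatment of 20000 Ba/F3-FGFR1 cells per well in 10% FBS RPMI at 37° C. IL3 counterscreen used the same protocol plus 10 ng/ml murine IL3.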

Structures are written as SMILES.

Chain of FGFR4 (h) (P22455 22-802): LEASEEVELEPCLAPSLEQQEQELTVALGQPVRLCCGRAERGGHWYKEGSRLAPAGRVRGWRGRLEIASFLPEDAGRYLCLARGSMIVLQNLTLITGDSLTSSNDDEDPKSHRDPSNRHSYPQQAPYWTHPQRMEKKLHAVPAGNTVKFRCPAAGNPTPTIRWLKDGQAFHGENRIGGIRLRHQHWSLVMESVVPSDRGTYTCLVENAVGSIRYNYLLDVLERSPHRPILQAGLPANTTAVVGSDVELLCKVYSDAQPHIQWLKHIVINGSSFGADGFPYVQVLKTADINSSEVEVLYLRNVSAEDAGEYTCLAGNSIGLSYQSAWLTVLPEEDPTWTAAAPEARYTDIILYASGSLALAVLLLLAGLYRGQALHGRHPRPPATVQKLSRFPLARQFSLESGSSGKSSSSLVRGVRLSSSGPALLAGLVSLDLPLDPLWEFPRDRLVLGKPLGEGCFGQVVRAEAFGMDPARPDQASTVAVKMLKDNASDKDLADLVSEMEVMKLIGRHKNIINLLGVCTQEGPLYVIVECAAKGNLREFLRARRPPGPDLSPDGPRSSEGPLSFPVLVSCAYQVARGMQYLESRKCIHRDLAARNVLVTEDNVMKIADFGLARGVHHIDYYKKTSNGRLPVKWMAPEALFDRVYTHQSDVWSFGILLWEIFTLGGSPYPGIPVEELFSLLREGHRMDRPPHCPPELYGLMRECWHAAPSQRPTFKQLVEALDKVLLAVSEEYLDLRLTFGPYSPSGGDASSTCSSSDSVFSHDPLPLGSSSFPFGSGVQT
Chain of FGFR3 (h) (P22607 23-806): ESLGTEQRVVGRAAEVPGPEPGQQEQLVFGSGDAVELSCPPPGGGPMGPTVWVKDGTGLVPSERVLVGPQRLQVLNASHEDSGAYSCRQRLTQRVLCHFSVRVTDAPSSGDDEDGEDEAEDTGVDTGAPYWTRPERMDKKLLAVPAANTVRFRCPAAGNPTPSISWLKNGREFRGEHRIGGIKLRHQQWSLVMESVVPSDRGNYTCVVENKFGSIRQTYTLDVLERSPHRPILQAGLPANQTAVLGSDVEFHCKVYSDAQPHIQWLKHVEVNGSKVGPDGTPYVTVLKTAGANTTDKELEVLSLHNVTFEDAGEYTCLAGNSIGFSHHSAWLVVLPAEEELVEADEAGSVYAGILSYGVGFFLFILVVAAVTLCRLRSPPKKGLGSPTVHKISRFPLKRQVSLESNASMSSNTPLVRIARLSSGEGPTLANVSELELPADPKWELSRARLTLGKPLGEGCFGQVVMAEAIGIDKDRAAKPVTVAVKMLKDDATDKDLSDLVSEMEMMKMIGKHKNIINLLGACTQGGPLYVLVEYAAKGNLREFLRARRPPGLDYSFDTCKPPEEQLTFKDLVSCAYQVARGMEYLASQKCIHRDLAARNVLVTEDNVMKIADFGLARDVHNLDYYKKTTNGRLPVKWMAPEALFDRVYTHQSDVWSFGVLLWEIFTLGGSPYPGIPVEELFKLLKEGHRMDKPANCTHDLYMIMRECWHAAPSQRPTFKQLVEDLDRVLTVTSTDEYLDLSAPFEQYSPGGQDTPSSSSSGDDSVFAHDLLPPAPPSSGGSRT

For `COc1cc(OC)c(F)c(N(CCO)c2ccc3ncc(-c4cnn(CCO)c4)nc3n2)c1` [Compound 233], the IC50 against FGFR4 (h) was 2.88 nM; on FGFR2 (h), 1.7 nM; on KDR (h) it was 25.7 nM; at FGFR3 (h), 0.776 nM; in [3], over 10000 nM; in test [5], over 10000 nM. In addition, the “BAF3-FGFR3 (MIN IL3) pIC50” value in test [1] turned out to be 7.40. Moreover, the “BAF3-FGFR1 (MIN IL3) pIC50” value in [2] worked out at 7.49. Besides, in test [4], the “BAF3-KDR (MIN IL3) pIC50” value was determined as 5.90.
As to `COc1cc(OC)c(F)c(N(Cc2nc(Br)c[nH]2)c2ccc3ncc(-c4cnn(C)c4)nc3n2)c1` [Compound 238], the IC50 against FGFR4 (h) was 1.12 nM; at FGFR2 (h) it was 2.14 nM; at KDR (h), 11.2 nM; on FGFR3 (h), 1.17 nM; in test [3], over 10000 nM; in [5], over 10000 nM. For the same compound, the “BAF3-FGFR3 (MIN IL3) pIC50” value in test [1] is reported as about 8.45. In test [2], the “BAF3-FGFR1 (MIN IL3) pIC50” value is about 8.32. In addition, in test [4], the “BAF3-KDR (MIN IL3) pIC50” value was 6.46.
For the compound `COc1cc(OC)c(F)c(N(Cc2ncc[nH]2)c2ccc3ncc(-c4cnn(CC(C)(C)O)c4)nc3n2)c1` [Compound 240], the IC50 against FGFR4 (h) was 1.91 nM; on FGFR2 (h), 2.57 nM; at KDR (h) it was 15.5 nM; on FGFR3 (h) it was 1.82 nM; in test [3], over 10000 nM; in test [5] it was over 10000 nM. Besides, in test [1], the “BAF3-FGFR3 (MIN IL3) pIC50” value is about 8.52. Moreover, the “BAF3-FGFR1 (MIN IL3) pIC50” value in test [2] is on record as 8.57. The “BAF3-KDR (MIN IL3) pIC50” value in test [4] is listed as 6.89.
For the compound `COc1cc(OC)c(F)c(N(CCNC(C)=O)c2ccc3ncc(-c4cnn(C)c4)nc3n2)c1` [Compound 242], the IC50 against FGFR4 (h) was 2.24 nM; on FGFR2 (h) it was 2.95 nM; at KDR (h) it was 28.2 nM; on FGFR3 (h), 1.86 nM; in test [3], over 10000 nM; in test [5], over 10000 nM. Further, in test [1], the “BAF3-FGFR3 (MIN IL3) pIC50” value is given as about 8.11. In test [2], the “BAF3-FGFR1 (MIN IL3) pIC50” value was found to be 7.35. Also, the “BAF3-KDR (MIN IL3) pIC50” value in test [4] is given as 5.49.
As to `COc1cc(/N=c2\ccc3ncc(-c4cnn(C)c4)nc3n2CC2CCC(=O)N2)cc(OC)c1` (stereo not drawn) [Compound 248], the IC50 against FGFR4 (h) was 8.13 nM; on FGFR2 (h) it was 3.63 nM; at KDR (h), 20 nM; at FGFR3 (h), 1.82 nM; in test [3], over 10000 nM; in [5] it was over 10000 nM. Besides, the “BAF3-FGFR3 (MIN IL3) pIC50” value in test [1] came out at 6.67. Besides, the “BAF3-FGFR1 (MIN IL3) pIC50” value in test [2] stood at 6.70. The “BAF3-KDR (MIN IL3) pIC50” value in [4] is on record as 5.76.
On to `COc1cc(OC)c(F)c(N(Cc2n[nH]c(=O)o2)c2ccc3ncc(-c4cnn(C)c4)nc3n2)c1` [Compound 284], for which the IC50 was 5.5 nM on FGFR4 (h); 2.14 nM at FGFR2 (h); 63.1 nM on KDR (h); 1.05 nM at FGFR3 (h); over 10000 nM in [3]; over 10000 nM in test [5]. In test [1], the “BAF3-FGFR3 (MIN IL3) pIC50” value stood at 6.42. For the same compound, the “BAF3-FGFR1 (MIN IL3) pIC50” value in [2] is recorded as 6.37. Also, the “BAF3-KDR (MIN IL3) pIC50” value in [4] is under 5.
